Measurements reported in ChEMBL document CHEMBL1201862, “PubChem BioAssay data set” (2004).
Active and inactive are the calls of the source.

Assays:
[1] = molecular target: DNA (cytosine-5)-methyltransferase 1 (Homo sapiens, UniProt P26358); assay: inhibition of DNA methylation by DNMT1 – biochemical, fluorescent molecular beacon, confirmation (AID 602386); assay type: functional
[2] = molecular target: T1, Voltage-gated N-type calcium channel alpha-1B subunit/Amyloid beta A4 precursor protein-binding family A member 1 (Homo sapiens, UniProt Q00975+Q02410); assay type: protein assay
[3] = molecular target: Eukaryotic translation initiation factor 4E (Mus musculus, UniProt P63073); assay: blockers of eIF4G binding by eIF4E – biochemical, TR-FRET, dose response (AID 855); assay type: functional;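 further: potency for disrupting eIF4E binding to eIF4GI seen as loss of FRET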
[4] = molecular target: Induced myeloid leukemia cell differentiation protein Mcl-1 (Homo sapiens, UniProt Q07820); assay type: functional
NS3 = NS3 (Hepatitis C virus, UniProt A3EZJ3); assay: PubChem AID 2173; design: species or system Hepacivirus hominis
[5] = molecular target: T2, Bifunctional protein GlmU (Mycobacterium tuberculosis, UniProt P9WMN3); assay: Inhibitors of Mycobacterial Glucosamine-1-phosphate acetyl transferase (GlmU). Secondary screen.; design: species or system Mycobacterium tuberculosis H37Rv
T2 sequence (P9WMN3 whole entry): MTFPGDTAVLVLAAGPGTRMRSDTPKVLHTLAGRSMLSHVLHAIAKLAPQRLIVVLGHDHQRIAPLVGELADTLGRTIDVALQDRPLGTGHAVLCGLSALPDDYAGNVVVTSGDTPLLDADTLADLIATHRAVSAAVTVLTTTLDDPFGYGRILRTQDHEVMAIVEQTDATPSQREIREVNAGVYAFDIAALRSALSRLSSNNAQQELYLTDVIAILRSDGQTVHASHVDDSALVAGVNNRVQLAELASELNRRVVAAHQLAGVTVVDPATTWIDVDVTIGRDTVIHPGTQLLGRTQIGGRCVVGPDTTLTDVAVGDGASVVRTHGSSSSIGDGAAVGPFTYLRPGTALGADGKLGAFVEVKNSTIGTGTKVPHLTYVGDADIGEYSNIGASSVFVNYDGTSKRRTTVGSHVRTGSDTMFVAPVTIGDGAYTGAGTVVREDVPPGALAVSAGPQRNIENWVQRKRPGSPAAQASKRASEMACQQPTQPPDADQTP

ORF 73 = ORF 73 (Human herpesvirus 8, UniProt O40947); assay: KSHV LANA DNA-binding disruption – biochemical, fluorescence polarization, cherry-picked samples, dose response (AID 504725); design: species or system Human gammaherpesvirus 8;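 further: fluorescence polarization of a labeled DNA duplex reporting LANA DNA binding; potency is for inhibitors that block LANA binding to the DNA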
[6] = molecular target: T1, Voltage-gated N-type calcium channel alpha-1B subunit/Amyloid beta A4 precursor protein-binding family A member 1; assay type: protein assay; remark: listed apart in the source
[7] = molecular target: T3, Orexin/Hypocretin receptor type 1 (Homo sapiens, UniProt O43613); assay: (§1) Fluorescence-based cell-based high throughput dose response assay for antagonists of the orexin 1 receptor (OX1R; HCRTR1). [Related pubchem assays (depositor defined):AID434989, AID435008, AID463079, AID485270, AID492963, AID492964, AID492965, AID493232, AID504717, AID504718]; assay type: functional
T3 sequence (O43613 whole entry): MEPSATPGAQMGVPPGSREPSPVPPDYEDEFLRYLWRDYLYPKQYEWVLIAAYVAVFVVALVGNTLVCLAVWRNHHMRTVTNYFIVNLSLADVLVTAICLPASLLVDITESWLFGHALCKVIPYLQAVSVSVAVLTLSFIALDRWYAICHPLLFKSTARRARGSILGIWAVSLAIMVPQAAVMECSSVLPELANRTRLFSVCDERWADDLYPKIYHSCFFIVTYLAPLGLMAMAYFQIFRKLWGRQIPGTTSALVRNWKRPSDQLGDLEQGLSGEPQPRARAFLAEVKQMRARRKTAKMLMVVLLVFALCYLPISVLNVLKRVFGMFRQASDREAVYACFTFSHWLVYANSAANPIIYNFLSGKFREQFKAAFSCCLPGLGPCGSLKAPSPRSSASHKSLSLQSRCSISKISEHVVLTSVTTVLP

[8] = (§2) Counterscreen for antagonists of the orexin 1 receptor (OX1R; HCRTR1): Fluorescence-based cell-based high throughput dose response assay to identify antagonists of the parental CHO cell line. [Related pubchem assays (depositor defined):AID434989, AID435008, AID463079, AID485270, AID492963, AID492964, AID492965, AID493232, AID504699, AID504701]; assay type: functional
[9] = molecular target: T3, Orexin/Hypocretin receptor type 1; assay: as §1, with “Homogeneous Time Resolved Fluorescence (HTRF)-based” for “Fluorescence-based”; assay type: functional
Orexin receptor type 2 [10] = molecular target: T4, Orexin receptor type 2 (Homo sapiens, UniProt O43614); assay: Counterscreen assay for antagonists of the orexin 1 receptor (OX1R; HCRTR1): Fluorescence-based cell-based dose response assay for antagonists of the orexin 2 receptor (OX2R; HCRTR2), run by assay provider.; assay type: functional
T4 sequence (O43614 whole entry): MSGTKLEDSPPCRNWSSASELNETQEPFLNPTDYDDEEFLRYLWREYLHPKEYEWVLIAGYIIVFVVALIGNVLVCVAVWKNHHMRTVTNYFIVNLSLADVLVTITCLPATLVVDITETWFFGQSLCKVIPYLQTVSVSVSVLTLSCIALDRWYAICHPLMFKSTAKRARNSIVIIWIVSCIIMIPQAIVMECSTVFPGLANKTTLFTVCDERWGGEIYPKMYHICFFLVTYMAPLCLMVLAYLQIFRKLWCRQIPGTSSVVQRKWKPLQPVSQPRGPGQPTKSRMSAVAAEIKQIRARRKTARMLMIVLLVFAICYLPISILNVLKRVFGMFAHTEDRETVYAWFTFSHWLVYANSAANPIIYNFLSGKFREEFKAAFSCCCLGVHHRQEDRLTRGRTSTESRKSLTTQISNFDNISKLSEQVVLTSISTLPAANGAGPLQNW

Orexin receptor type 2 [11] = molecular target: T4, Orexin receptor type 2; assay: Counterscreen assay for antagonists of the orexin 1 receptor (OX1R; HCRTR1): Homogeneous Time Resolved Fluorescence (HTRF)-based cell-based dose response assay for antagonists of the orexin 2 receptor (OX2R; HCRTR2), run by assay provider.; assay type: functional
CHO-K1 = assay: as §2, with “Homogeneous time resolved fluorescence (HTRF)-based” for “Fluorescence-based”, “cell-based” for “cell-based high throughput”, “CHO-K1” for “CHO”; assay type: functional; conditions: Cricetulus griseus
[12] = molecular target: T5, Apoptotic protease-activating factor 1 (Homo sapiens, UniProt O14727); assay: SAR analysis of small molecule Activators of Apaf-1 in a Fluorescent assay.; assay type: functional; conditions: read-out: EC50_Mean;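 further: caspase-3 cleavage of fluorogenic Rh110 DEVD substrate downstream of apoptosome activation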
T5 sequence (O14727 whole entry): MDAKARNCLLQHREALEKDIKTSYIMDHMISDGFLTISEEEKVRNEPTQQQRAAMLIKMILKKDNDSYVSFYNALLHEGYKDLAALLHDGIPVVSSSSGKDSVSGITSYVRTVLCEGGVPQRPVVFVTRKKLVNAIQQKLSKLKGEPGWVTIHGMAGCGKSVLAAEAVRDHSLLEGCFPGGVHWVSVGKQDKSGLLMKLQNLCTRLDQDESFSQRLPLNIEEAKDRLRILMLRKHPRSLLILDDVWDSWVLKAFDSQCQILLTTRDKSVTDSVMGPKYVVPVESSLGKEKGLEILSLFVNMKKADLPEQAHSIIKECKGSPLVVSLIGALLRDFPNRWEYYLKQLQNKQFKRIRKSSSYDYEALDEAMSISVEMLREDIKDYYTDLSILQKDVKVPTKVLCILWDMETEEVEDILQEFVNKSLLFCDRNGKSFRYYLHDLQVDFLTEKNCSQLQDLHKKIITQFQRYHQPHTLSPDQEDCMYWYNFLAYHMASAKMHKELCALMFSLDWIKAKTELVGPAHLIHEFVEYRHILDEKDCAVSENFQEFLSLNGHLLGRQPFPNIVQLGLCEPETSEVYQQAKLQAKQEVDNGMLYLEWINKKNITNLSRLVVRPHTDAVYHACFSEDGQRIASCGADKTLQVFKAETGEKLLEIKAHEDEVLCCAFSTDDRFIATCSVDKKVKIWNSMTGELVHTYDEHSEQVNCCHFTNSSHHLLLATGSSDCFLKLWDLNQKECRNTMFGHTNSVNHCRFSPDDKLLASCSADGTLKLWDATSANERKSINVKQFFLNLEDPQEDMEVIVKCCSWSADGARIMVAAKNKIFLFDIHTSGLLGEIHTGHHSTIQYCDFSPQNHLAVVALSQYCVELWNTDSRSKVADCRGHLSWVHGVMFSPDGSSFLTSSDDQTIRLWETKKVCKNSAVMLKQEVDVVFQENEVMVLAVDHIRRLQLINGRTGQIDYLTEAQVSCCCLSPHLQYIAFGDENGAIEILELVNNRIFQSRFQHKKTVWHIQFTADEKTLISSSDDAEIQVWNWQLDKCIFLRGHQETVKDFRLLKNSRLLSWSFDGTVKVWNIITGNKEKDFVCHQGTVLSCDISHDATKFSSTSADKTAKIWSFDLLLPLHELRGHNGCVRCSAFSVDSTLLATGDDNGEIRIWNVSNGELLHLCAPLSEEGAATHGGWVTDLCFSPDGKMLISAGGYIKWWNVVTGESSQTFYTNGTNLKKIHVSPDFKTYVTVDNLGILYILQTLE

T1 sequence (Q00975 whole entry): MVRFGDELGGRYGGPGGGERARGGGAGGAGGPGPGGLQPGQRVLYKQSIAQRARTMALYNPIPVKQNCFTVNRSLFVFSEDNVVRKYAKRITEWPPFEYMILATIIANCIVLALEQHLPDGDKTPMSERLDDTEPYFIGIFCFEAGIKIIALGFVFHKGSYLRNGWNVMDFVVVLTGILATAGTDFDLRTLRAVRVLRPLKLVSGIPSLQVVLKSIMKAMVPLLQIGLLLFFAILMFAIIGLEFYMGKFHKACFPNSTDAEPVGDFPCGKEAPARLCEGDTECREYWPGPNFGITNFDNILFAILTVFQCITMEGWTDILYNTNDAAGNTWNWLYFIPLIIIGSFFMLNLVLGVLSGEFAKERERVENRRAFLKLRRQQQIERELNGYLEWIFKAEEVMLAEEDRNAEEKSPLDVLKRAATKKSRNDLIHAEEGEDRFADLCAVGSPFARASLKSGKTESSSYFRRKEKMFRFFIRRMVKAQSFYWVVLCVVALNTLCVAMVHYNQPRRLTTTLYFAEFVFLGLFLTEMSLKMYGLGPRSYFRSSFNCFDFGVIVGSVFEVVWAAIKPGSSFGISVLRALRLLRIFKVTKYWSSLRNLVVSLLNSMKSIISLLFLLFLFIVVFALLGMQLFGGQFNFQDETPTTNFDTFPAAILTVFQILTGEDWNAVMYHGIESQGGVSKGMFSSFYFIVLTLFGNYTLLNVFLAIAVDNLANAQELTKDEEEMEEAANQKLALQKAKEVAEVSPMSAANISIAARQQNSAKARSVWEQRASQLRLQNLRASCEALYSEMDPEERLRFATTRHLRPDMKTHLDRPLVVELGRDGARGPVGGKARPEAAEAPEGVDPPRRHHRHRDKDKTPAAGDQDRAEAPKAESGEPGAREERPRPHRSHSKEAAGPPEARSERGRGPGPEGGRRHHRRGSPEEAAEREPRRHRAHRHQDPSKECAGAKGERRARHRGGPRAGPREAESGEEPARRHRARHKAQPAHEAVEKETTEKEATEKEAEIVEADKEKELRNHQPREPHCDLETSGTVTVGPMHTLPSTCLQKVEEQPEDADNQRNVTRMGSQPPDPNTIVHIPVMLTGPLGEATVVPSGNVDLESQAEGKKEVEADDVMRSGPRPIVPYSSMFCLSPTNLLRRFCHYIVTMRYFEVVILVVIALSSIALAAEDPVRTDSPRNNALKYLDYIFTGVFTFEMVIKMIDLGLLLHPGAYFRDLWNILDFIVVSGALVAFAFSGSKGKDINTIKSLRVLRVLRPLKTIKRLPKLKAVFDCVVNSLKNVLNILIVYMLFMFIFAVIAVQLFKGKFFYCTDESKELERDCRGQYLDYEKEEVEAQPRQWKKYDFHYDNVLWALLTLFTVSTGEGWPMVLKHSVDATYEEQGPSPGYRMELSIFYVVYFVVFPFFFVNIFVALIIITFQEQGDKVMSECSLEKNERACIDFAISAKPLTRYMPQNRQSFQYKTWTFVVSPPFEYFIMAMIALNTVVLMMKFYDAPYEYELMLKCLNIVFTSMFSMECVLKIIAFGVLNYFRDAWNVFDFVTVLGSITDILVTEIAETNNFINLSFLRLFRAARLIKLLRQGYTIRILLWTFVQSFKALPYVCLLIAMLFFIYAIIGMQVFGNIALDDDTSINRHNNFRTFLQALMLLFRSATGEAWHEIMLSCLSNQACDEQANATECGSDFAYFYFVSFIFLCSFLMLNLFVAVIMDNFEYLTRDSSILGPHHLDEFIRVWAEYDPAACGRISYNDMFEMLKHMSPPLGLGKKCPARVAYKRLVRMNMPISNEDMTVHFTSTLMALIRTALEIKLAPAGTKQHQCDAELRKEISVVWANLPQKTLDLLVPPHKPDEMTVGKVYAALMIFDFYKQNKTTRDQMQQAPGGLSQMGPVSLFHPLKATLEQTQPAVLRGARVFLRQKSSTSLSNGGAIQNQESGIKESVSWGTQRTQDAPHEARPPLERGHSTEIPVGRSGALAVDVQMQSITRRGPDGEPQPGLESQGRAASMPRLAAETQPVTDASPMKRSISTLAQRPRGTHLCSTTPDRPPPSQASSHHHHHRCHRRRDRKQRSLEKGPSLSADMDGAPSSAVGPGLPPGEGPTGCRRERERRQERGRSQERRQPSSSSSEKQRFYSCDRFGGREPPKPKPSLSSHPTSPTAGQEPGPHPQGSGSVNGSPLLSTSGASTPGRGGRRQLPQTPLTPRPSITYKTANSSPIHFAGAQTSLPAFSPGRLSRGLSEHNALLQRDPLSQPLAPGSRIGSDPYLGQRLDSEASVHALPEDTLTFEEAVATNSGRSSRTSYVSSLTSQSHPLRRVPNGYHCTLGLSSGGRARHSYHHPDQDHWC
T1 sequence (Q02410 whole entry): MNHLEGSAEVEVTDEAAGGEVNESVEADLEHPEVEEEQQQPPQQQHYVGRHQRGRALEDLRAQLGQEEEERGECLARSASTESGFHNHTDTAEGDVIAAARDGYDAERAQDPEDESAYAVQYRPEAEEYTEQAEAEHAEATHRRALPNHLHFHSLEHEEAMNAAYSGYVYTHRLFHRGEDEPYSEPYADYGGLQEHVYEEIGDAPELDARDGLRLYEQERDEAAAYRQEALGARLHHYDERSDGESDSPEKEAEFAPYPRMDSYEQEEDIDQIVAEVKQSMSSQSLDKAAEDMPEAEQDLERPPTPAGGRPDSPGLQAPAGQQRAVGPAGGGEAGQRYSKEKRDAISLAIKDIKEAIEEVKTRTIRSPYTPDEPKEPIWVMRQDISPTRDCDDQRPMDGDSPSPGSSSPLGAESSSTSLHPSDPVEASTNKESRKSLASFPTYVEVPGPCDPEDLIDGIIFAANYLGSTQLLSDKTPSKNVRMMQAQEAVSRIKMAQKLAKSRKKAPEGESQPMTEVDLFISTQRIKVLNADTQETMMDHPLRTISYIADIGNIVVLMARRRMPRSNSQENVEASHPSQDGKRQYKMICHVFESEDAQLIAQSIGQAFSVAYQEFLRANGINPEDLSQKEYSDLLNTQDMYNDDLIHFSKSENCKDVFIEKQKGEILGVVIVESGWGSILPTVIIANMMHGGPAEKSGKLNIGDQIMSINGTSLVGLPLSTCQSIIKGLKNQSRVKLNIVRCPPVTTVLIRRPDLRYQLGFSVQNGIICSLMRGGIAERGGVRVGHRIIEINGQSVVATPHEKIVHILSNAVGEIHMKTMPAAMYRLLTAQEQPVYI
Sequence of NS3 (A3EZJ3 whole entry): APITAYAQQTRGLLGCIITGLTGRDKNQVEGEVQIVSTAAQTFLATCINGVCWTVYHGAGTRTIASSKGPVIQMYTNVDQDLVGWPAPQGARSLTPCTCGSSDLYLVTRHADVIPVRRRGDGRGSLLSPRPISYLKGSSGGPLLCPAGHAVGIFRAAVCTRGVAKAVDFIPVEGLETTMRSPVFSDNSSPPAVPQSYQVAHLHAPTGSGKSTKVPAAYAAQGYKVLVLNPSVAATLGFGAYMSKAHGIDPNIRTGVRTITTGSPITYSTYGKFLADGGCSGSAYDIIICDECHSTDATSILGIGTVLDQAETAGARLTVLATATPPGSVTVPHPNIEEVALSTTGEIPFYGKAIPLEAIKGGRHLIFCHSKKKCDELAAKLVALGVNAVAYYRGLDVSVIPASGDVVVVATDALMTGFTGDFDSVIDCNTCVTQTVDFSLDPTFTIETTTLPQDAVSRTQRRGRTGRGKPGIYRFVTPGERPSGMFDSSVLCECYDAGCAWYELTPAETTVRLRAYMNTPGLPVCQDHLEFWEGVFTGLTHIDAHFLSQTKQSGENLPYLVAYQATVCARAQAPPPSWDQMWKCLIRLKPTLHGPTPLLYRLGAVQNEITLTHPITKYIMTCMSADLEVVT
Sequence of ORF 73 (O40947 whole entry): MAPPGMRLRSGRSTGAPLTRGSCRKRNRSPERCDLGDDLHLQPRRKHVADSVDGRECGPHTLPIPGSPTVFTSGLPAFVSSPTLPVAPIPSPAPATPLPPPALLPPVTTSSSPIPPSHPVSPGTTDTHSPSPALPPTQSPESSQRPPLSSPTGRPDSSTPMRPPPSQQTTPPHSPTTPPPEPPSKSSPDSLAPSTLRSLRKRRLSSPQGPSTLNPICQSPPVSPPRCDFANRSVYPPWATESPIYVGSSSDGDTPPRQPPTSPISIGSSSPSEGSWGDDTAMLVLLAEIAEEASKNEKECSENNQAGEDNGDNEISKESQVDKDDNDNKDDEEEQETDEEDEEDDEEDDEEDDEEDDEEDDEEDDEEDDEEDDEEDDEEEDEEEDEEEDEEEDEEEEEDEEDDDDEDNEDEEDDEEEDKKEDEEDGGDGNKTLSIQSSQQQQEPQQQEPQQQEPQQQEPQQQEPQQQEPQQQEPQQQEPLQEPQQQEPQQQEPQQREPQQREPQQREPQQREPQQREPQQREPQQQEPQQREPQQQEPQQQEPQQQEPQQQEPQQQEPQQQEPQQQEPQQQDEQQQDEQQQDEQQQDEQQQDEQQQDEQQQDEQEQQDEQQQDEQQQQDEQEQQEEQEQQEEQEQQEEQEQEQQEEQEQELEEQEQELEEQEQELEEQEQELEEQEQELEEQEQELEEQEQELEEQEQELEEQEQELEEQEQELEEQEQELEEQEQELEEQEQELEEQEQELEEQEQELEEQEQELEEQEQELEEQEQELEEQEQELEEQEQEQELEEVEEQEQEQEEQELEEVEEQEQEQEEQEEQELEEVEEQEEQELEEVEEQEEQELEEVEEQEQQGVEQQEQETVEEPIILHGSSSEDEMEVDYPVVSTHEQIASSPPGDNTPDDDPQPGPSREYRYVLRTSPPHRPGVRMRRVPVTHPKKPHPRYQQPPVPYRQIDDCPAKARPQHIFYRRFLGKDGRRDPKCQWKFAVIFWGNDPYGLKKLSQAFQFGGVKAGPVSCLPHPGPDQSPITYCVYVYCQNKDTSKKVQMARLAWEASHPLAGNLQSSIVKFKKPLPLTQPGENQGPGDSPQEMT
Sequence of Eukaryotic translation initiation factor 4E (P63073 whole entry): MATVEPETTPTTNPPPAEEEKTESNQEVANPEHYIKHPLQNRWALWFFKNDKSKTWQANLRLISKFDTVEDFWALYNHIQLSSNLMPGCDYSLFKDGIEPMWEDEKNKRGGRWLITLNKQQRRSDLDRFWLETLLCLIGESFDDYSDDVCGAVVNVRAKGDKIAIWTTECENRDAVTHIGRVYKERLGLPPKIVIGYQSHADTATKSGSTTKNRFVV

## O=C(O)c1ccc(-n2cccc2/C=C2/NC(=O)N(c3cccc(Cl)c3)C2=O)cc1
[1]
  IC50: 4.62 µM (active)
[2]
  IC50: 3.28 µM (active)
[3]
  IC50: 50 µM (inactive)
[4]
  IC50: 6.34 µM (active)
NS3
  IC50: 6.07 µM (active)
[5]
  IC50: 66.8 µM (active)
ORF 73
  AC50: 86.8 µM (active)
[6]
  IC50: 48.1 µM (active)

## O=C(c1ccc(S(=O)(=O)Nc2ccc(F)cc2)cc1)N1CCN(c2ccccn2)CC1
[7]
  IC50: 7.1 µM (active)
[8]
  IC50: 14.7 µM (inactive)
[9]
  IC50: 4.45 µM (active)
Orexin receptor type 2 [10]
  IC50: 15.6 µM (inactive)
Orexin receptor type 2 [11]
  IC50: > 50 µM (inactive)
CHO-K1
  IC50: > 66.2 µM (inactive)

## O=C(Nc1cccc(S(=O)(=O)NCc2ccco2)c1)c1cc(-c2ccccc2)nc2ccccc12
[7]
  IC50: > 5.53 µM (active)
[8]
  IC50: > 49.7 µM (inactive)
[9]
  IC50: 2.98 µM (active)
Orexin receptor type 2 [10]
  IC50: 16.9 µM (inactive)
Orexin receptor type 2 [11]
  IC50: > 50 µM (inactive)
CHO-K1
  IC50: > 66.2 µM (inactive)

## COC(=O)c1coc(-c2ccc(F)cc2)n1
[12]
  EC50: > 100 µM (inactive)
